Assay results published in PubChem BioAssay (NCI).
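Five compound concentrations were applied to cells in 96-well plates for 48 hours; endpoints were derived by simple linear interpolation of the resulting dose-response curve. Abbreviation: GI50, concentration required for 50% inhibition of growth. TGI: total growth inhibition.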

Key:
Experiment in all cases: NCI anticancer screen, dose series, 48 h; in the data active means GI50 below about 0.43 µM; inactive means the rest
[1] = test system: 786-0 renal
[2] = test system: A549 NSCLC
[3] = test system: ACHN renal
[4] = test system: BT-549 breast
[5] = test system: CCRF-CEM leukemia
[6] = test system: DU-145 prostate
[7] = test system: EKVX NSCLC
[8] = test system: HCC-2998 colon
[9] = test system: HCT-116 colon
[10] = test system: HCT-15 colon
[11] = test system: HL-60(TB) leukemia
[12] = test system: HOP-92 NSCLC
[13] = test system: HS 578T breast
[14] = test system: HT29 colon
[15] = test system: IGROV1 ovarian
[16] = test system: K-562 leukemia
[17] = test system: KM12 colon
[18] = test system: M14 melanoma
[19] = test system: MALME-3M melanoma
[20] = test system: MDA-MB-435
[21] = test system: MDA-N
[22] = test system: MOLT-4 leukemia
[23] = test system: NCI-H226 lung
[24] = test system: NCI-H23 lung
[25] = test system: NCI-H460 lung
[26] = test system: NCI-H522 lung
[27] = test system: NCI/ADR-RES ovarian
[28] = test system: OVCAR-3 ovarian
[29] = test system: OVCAR-4 ovarian
[30] = test system: OVCAR-5 ovarian
[31] = test system: OVCAR-8 ovarian
[32] = test system: RXF 393 renal
[33] = test system: SF-268 CNS
[34] = test system: SF-295 CNS
[35] = test system: SF-539 CNS
[36] = test system: SK-MEL-2 melanoma
[37] = test system: SN12C renal
[38] = test system: SNB-19 CNS
[39] = test system: SNB-75 CNS
[40] = test system: SR leukemia
[41] = test system: U251 CNS
[42] = test system: UACC-257 melanoma
[43] = test system: UACC-62 melanoma
[44] = test system: UO-31 renal
[45] = test system: A498 renal
[46] = test system: CAKI-1 renal
[47] = test system: COLO 205 colon
[48] = test system: HOP-62 NSCLC
[49] = test system: LOX IMVI melanoma
[50] = test system: MCF7 breast
[51] = test system: MDA-MB-231 breast
[52] = test system: PC-3 prostate
[53] = test system: RPMI-8226 leukemia
[54] = test system: SK-MEL-28 melanoma
[55] = test system: SK-MEL-5 melanoma
[56] = test system: SK-OV-3 ovarian
[57] = test system: SW-620 colon
[58] = test system: T-47D breast
[59] = test system: TK-10 renal

CCOC(=O)c1cc(-c2ccc(OC)cc2)c([N+](=O)[O-])n1C
4.81 µM: TGI [32]
> 10 µM: TGI [1] | TGI [2] | TGI [3] | TGI [4] | TGI [5] | TGI [6] | TGI [7] | TGI [8] | TGI [9] | TGI [10] | TGI [11] | TGI [12] | TGI [13] | TGI [14] | TGI [15] | TGI [16] | TGI [17] | TGI [18] | TGI [19] | TGI [20] | TGI [21] | TGI [22] | TGI [23] | TGI [24] | TGI [25] | TGI [26] | TGI [27] | TGI [28] | TGI [29] | TGI [30] | TGI [31] | TGI [33] | TGI [34] | TGI [35] | TGI [36] | TGI [37] | TGI [38] | TGI [39] | TGI [40] | TGI [41] | TGI [42] | TGI [43] | TGI [44]

CC[C@@H](c1ccc(O)c(O)c1)[C@@H](CC)c1ccc(O)c(O)c1
22.5 µM: TGI [22]
38.1 µM: TGI [42]
9.39 µM: TGI [5]
31.8 µM: TGI [24]
6.09 µM: TGI [12]
33 µM: TGI [48]
9.43 µM: TGI [46]
62 µM: TGI [25]
77.8 µM: TGI [36]
41.3 µM: TGI [37]
9.41 µM: TGI [10]
13.5 µM: TGI [18]
44.6 µM: TGI [54]
62.7 µM: TGI [27]
11.6 µM: TGI [28]
38.2 µM: TGI [1]
37.5 µM: TGI [33]
41.6 µM: TGI [39]
14.4 µM: TGI [9]
5.67 µM: TGI [57]
4.03 µM: TGI [3]
19.8 µM: TGI [19]
26.3 µM: TGI [53]
26.1 µM: TGI [4]
33.1 µM: TGI [8]
70.3 µM: TGI [59]
23.6 µM: TGI [35]
29.4 µM: TGI [7]
7.59 µM: TGI [32]
77.9 µM: TGI [56]
26.2 µM: TGI [6]
> 100 µM: TGI [45] | TGI [2] | TGI [13] | TGI [50] | TGI [31] | TGI [38] | TGI [40]
39.3 µM: TGI [29]
28.9 µM: TGI [52] | TGI [55]
44 µM: TGI [23]
21.4 µM: TGI [44]
4.11 µM: TGI [47]
6.21 µM: TGI [11]
87 µM: TGI [34]
35.1 µM: TGI [17]
37.8 µM: TGI [30] | TGI [41]
5.63 µM: TGI [26]
7.96 µM: TGI [58]
58.2 µM: TGI [14]
15.1 µM: TGI [20]
inactive: GI50 [1] 20.4 µM | GI50 [45] 44.4 µM | GI50 [2] 31.9 µM | GI50 [3] 1.94 µM | GI50 [4] 13.2 µM | GI50 [46] 2.77 µM | GI50 [5] 2.88 µM | GI50 [47] 1.97 µM | GI50 [6] 12.9 µM | GI50 [7] 13.4 µM | GI50 [8] 17.4 µM | GI50 [9] 4.23 µM | GI50 [10] 2.39 µM | GI50 [11] 2.66 µM | GI50 [48] 17.7 µM | GI50 [12] 2.02 µM | GI50 [13] 73.3 µM | GI50 [14] 11.9 µM | GI50 [15] 9.57 µM | GI50 [16] 3.38 µM | GI50 [17] 18.5 µM | GI50 [49] 2.85 µM | GI50 [18] 3.59 µM | GI50 [19] 3.91 µM | GI50 [50] 34.9 µM | GI50 [51] 12 µM | GI50 [20] 3.47 µM | GI50 [22] 4.21 µM | GI50 [23] 21.1 µM | GI50 [24] 14.2 µM | GI50 [25] 26.1 µM | GI50 [26] 2.46 µM | GI50 [27] 10.1 µM | GI50 [28] 3.61 µM | GI50 [29] 4.6 µM | GI50 [30] 19.5 µM | GI50 [31] 25.6 µM | GI50 [52] 12.4 µM | GI50 [53] 4.31 µM | GI50 [32] 2.57 µM | GI50 [33] 17.9 µM | GI50 [34] 27.4 µM | GI50 [35] 6.66 µM | GI50 [36] 30.7 µM | GI50 [54] 19.1 µM | GI50 [55] 13.6 µM | GI50 [56] 29.4 µM | GI50 [37] 19.3 µM | GI50 [38] 40.4 µM | GI50 [39] 17.7 µM | GI50 [40] 4.17 µM | GI50 [57] 2.4 µM | GI50 [58] 2.48 µM | GI50 [59] 26 µM | GI50 [41] 15.8 µM | GI50 [42] 14.9 µM | GI50 [43] 10.4 µM | GI50 [44] 4.12 µM
23.4 µM: TGI [43]
29.1 µM: TGI [51]
94.5 µM: TGI [16]
85.5 µM: TGI [15]
9.91 µM: TGI [49]
